Test system: R223X stop codon in the mutated luciferase gene, ADXC8 luciferase reporter cell line
Experiment: cells
Format: cell-based
Conditions: ADXC8 cells, 24 hours; for Emax / EC (100% of 200 uM G418 response): 24 h; for Emax: read-out: Fold Over Control, maximum fold response relative to 200 μM G418; for EC (100% of 200 uM G418 response): read-out: pC100%, negative logarithm of the concentration giving the same response as 200 μM G418; for Fold Over Control: maximum fold response relative to 200 μM G418; for pC100%: negative logarithm of the concentration giving the same response as 200 μM G418

Compound	Emax [%]	EC (100% of 200 uM G418 response) [µM]	Fold Over Control	pC100%
Cc1cc(C)c2c(N)nc(NC3CCN(Cc4cccc5nc[nH]c45)CC3)nc2n1 [Example 660]	100 to 3000	1 to 10	–	–
Cc1cc(C)c2c(N)nc(N[C@H]3CCNC[C@@H]3C)nc2n1 [Example 641]	100 to 3000	10 to 100	–	–
CN1CCC(Nc2nc(N)c3ccc(-c4cncn4C)nc3n2)CC1 [Example 114]	0 to 100	> 100	–	–
Cc1ccc2c(N)nc(NC3CCN(C)CC3)nc2n1 [Example 3, 7-methyl-N^2-(1-methylpiperidin-4-yl)pyrido[2,3-d]pyrimidine-2,4-diamine]	–	1 to 10	–	–
CN1CCC(Nc2nc(N)c3ccc(-c4ccc(F)cc4)nc3n2)CC1 [Example 57]	100 to 3000	1 to 10	–	–
CN1CCC(Nc2nc(N)c3ccc(-c4ccccc4N(C)C)nc3n2)CC1 [Example 72]	0 to 100	> 100	–	–
Cc1cc(C)c2c(N)nc(NC3CCN(Cc4c(F)cc(C#N)cc4F)CC3)nc2n1 [Example 551]	100 to 3000	10 to 100	–	–
Cc1c2c(nc3nc(NC4CCN(Cc5cnccc5O)CC4)nc(N)c13)CCC2 [Example 663]	100 to 3000	1 to 10	–	–
Cc1c2c(nc3nc(NC4CCN(Cc5ccc(C#N)cc5)CC4)nc(NCCO)c13)CCC2 [Example 555]	100 to 3000	0.1 to 1	–	–
Cc1cc(C)c2c(N)nc(NCCN(C)C)nc2n1 [Example 142, N^2-(2-(dimethylamino)ethyl)-5,7-dimethylpyrido[2,3-d]pyrimidine-2,4-diamine]	–	1 to 10	–	–
Cc1nc2nc(NC3CCN(Cc4ccccc4O)CC3)nc(N)c2c2c1CCC2 [Example 537]	100 to 3000	0.1 to 1	–	–
C=C(C)c1ccc2c(N)nc(NC3CCN(C)CC3)nc2n1 [Example 238, N^2-(1-methylpiperidin-4-yl)-7-(prop-1-en-2-yl) pyrido[2,3-d]pyrimidine-2,4-diamine]	0 to 100	> 31.6	–	–
Cc1nc2nc(NC3CCN(C)CC3)nc(N)c2c(C)c1Br [Example 22, 6-bromo-5,7-dimethyl-N^2-(1-methylpiperidin-4-yl)pyrido[2,3-d]pyrimidine-2,4-diamine]	100 to 3000	1 to 10	–	–
Cc1cc(C)c2c(N)nc(NC3CCN(CC4CC4)CC3)nc2n1 [Example 145]	100 to 3000	1 to 10	–	–
CNc1nc(N[C@H]2CNC[C@@H]2F)nc2nc3c(c(C)c12)CCC3 [Example 342]	100 to 3000	0.1 to 1	–	–
CN1CCC(Nc2nc(N)c3ccc(-c4cccc(N)c4)nc3n2)CC1 [Example 93]	100 to 3000	10 to 100	–	–
Cc1cc(C)c2c(N)cc(NCCCN3CCOCC3)nc2n1 [Example 300]	100 to 3000	1 to 10	–	–
CN1CCC(Nc2nc(N)c3c(C#N)ccnc3n2)CC1 [Example 250, 4-amino-2-((1-methylpiperidin-4-yl)amino)pyrido[2,3-d]pyrimidine-5-carbonitrile]	0 to 100	> 100	–	–
CCN1C[C@H](Nc2nc(NC)c3c(C)cc(C)nc3n2)[C@@H](O)C1 [Example 626]	100 to 3000	1 to 10	–	–
CNc1nc(N[C@@]2(C)CCN(C)C2)nc2nc(C)cc(C)c12 [Example 638]	0 to 100	> 31.6	–	–
CNc1nc(NC2CNCC2(F)F)nc2nc(C)cc(C)c12 (single isomer, unassigned) [Example 437]	–	–	## (Fold over Ctrl > 1 ≤ 30)	+ (pC100% > 4.0 ≤ 5.0)

Compound	Emax [%]	EC (100% of 200 uM G418 response) [µM]	Fold Over Control	pC100%
Cc1c2c(nc3nc(NC4CCN(Cc5cccc(B(O)O)c5)CC4)nc(N)c13)CCC2 [Example 669]	100 to 3000	1 to 10	–	–
CNc1nc(N[C@@H]2C[C@H](C)N(C)C2)nc2nc(C)cc(C)c12 [Example 367]	–	1 to 10	–	–
COc1ccc(-c2ccc3c(N)nc(NC4CCN(C)CC4)nc3n2)cc1 [Example 24, 7-(4-methoxyphenyl)-N^2-(1-methylpiperidin-4-yl)pyrido[2,3-d]pyrimidine-2,4-diamine]	–	1 to 10	–	–
CNc1nc(NC2(CO)CCNC2)nc2nc(C)cc(C)c12 (single isomer, unassigned) [Example 441]	–	–	## (Fold over Ctrl > 1 ≤ 30)	++ (pC100% > 5.0 ≤ 6.0)
CNc1nc(N[C@H]2CN(C)C[C@H]2O)nc2nc(C)c3c(c12)CCC3 [Example 364]	100 to 3000	1 to 10	–	–
CNc1nc(N[C@@H]2CCN(C)C2)nc2nc(OC)c(CCO)c(C)c12 [Example 513, (R)-2-(7-methoxy-5-methyl-4-(methylamino)-2-((1-methylpyrrolidin-3-yl)amino)pyrido[2,3-d]pyrimidin-6-yl)ethan-1-ol]	0 to 100	> 31.6	–	–
Cc1cc(C)c2c(N)nc(NC3CCN(Cc4cccc(C(F)(F)F)c4)CC3)nc2n1 [Example 492]	100 to 3000	10 to 100	–	–
CNc1nc(N[C@@H]2CN[C@H](C)C2)nc2nc(C)cc(C)c12 [Example 372]	100 to 3000	10 to 100	–	–
CN1CCC(Nc2nc(N)c3ccc(-c4ccc(O)cc4)nc3n2)CC1 [Example 102]	100 to 3000	10 to 100	–	–
CN1CCC(Nc2nc(N)c3ccc(-c4ccc(S(C)(=O)=O)cc4)nc3n2)CC1 [Example 54]	0 to 100	> 100	–	–
Cc1cc(C)c2c(N)nc(NC[C@@H]3CN(C(=O)OC(C)(C)C)CCO3)nc2n1 [Example 136]	0 to 100	> 100	–	–
Cc1cc(C)c2c(N)nc(NC3CC34CCNCC4)nc2n1 (stereo not drawn) [Example 640]	0 to 100	> 31.6	–	–
COCc1cccc(-c2ccc3c(N)nc(NC4CCN(C)CC4)nc3n2)c1 [Example 81]	–	1 to 10	–	–
Cc1cc(C)c2c(N)nc(NC[C@@H]3CCNC3)nc2n1 [Example 217]	–	1 to 10	–	–
Cc1c2c(nc3nc(NC4CCN(Cc5ccccc5C(=O)O)CC4)nc(N)c13)CCC2 [Example 675]	0 to 100	> 31.6	–	–
CN1CCC(Nc2cc(N)c3cccnc3n2)CC1 [Example 43, N^2-(1-methylpiperidin-4-yl)-1,8-naphthyridine-2,4-diamine]	100 to 3000	10 to 100	–	–
Cc1cc(C)c2c(N)nc(NCC3CCN(C)C3)nc2n1 (stereo not drawn) [Example 170]	100 to 3000	10 to 100	–	–
Cc1nc2nc(NC3CCN(C)CC3)nc(N)c2cc1-c1cnn(C)c1 [Example 677]	0 to 100	> 100	–	–
Cc1cccc(-c2cc(C)c3c(N)nc(NCCCN4CCOCC4)nc3n2)c1 [Example 253, 5-methyl-N2-(3-morpholinopropyl)-7-(m-tolyl)pyrido[2,3-d]pyrimidine-2,4-diamine]	–	1 to 10	–	–
Cc1cc(C)c2c(N)nc(N[C@@H]3CCN(CC(F)(F)F)C3)nc2n1 [Example 311]	0 to 100	> 31.6	–	–

From US20260234144A1 (TAY THERAPEUTICS LIMITED, priority 2023, published 2026)
